According to publication PMC2248166, “Quantitative peptide binding motifs for 19 human and mouse MHC class I molecules derived using positional scanning combinatorial peptide libraries” (Immunome Research, 2008):
Where a SMILES comes first, the peptide text is derived from it.

Molecular target: HLA A*3201 (Homo sapiens, UniProt P04439, A270S/D101S/D185E/E176V/E277Q/F133L/G103R/G107R/G231S/H175R/I121M/I218V/I322F/K168Q/L105A/L300P/L318F/M331R/P208A/P217A/Q94H/R106L/R138Q/S129P/T104I/T323A/T345S/V100E/V321M/V358M)
Experiment: biochemical
Format: binding

SMILES | IC50
CC[C@H](C)[C@H](NC(=O)[C@H](CC(N)=O)NC(=O)[C@H](CCSC)NC(=O)[C@H](CCSC)NC(=O)[C@@H](N)Cc1ccc(O)cc1)C(=O)N[C@@H](Cc1ccc(O)cc1)C(=O)N[C@@H](CC(C)C)C(=O)N[C@@H](CC(N)=O)C(=O)N[C@@H](Cc1ccccc1)C(=O)O [3102.0446] (H-YMMNIYLNF-OH) | 2.9 nM
CC(C)C[C@H](NC(=O)[C@H](Cc1ccccc1)NC(=O)[C@H](CO)NC(=O)[C@H](CC(C)C)NC(=O)[C@@H](N)CCCCN)C(=O)N[C@@H](CO)C(=O)N[C@@H](CCCNC(=N)N)C(=O)N[C@H](C(=O)N[C@@H](Cc1ccccc1)C(=O)O)C(C)C [3102.0332] (H-KLSFLSRVF-OH) | 2.2 nM
CC[C@H](C)[C@H](N)C(=O)N[C@H](C(=O)N[C@H](C(=O)N[C@@H](Cc1ccc(O)cc1)C(=O)N[C@@H](Cc1ccccc1)C(=O)N[C@@H](CCCNC(=N)N)C(=O)N[C@@H](CCCNC(=N)N)C(=O)N[C@H](C(=O)N[C@H](C(=O)O)[C@@H](C)CC)[C@@H](C)O)C(C)C)[C@@H](C)O [3102.0382] (H-ITVYFRRTI-OH) | 26 nM
CC(C)C[C@H](NC(=O)[C@@H](N)C(C)C)C(=O)N[C@@H](Cc1ccc(O)cc1)C(=O)N[C@@H](CC(N)=O)C(=O)N[C@@H](CC(N)=O)C(=O)N[C@H](C(=O)N[C@H](C(=O)N[C@@H](CCC(=O)O)C(=O)N[C@@H](Cc1ccccc1)C(=O)O)C(C)C)C(C)C [3102.0424] (H-VLYNNVVEF-OH) | 1.5 nM
CSCC[C@H](NC(=O)[C@@H](N)Cc1c[nH]cn1)C(=O)N[C@@H](CC(C)C)C(=O)N[C@@H](CCC(=O)O)C(=O)N[C@@H](Cc1ccccc1)C(=O)N[C@@H](CC(C)C)C(=O)N[C@@H](Cc1ccc(O)cc1)C(=O)N[C@@H](CO)C(=O)N[C@@H](Cc1ccccc1)C(=O)O [3102.0499] (H-HMLEFLYSF-OH) | 0.3 nM
CC[C@H](C)[C@H](NC(=O)[C@@H](N)CCCCN)C(=O)N[C@@H](CC(N)=O)C(=O)N[C@@H](CC(N)=O)C(=O)N[C@@H](Cc1ccccc1)C(=O)N[C@@H](C)C(=O)N[C@@H](CC(N)=O)C(=O)N[C@@H](CCC(=O)O)C(=O)N[C@@H](Cc1ccccc1)C(=O)O [3102.0456] (H-KINNFANEF-OH) | 2.1 nM
CC[C@H](C)[C@H](N)C(=O)N[C@@H](CO)C(=O)N[C@@H](CC(C)C)C(=O)N[C@@H](Cc1ccccc1)C(=O)N[C@@H](Cc1ccc(O)cc1)C(=O)N[C@H](C(=O)N[C@@H](Cc1ccccc1)C(=O)N[C@@H](C)C(=O)N[C@H](C(=O)O)[C@@H](C)CC)[C@@H](C)O [3102.0415] (H-ISLFYTFAI-OH) | 0.57 nM
CC[C@H](C)[C@H](NC(=O)[C@@H](N)C(C)C)C(=O)N[C@@H](CC(N)=O)C(=O)N[C@@H](Cc1ccc(O)cc1)C(=O)N[C@@H](Cc1ccccc1)C(=O)N[C@@H](CC(N)=O)C(=O)N[C@@H](CCCNC(=N)N)C(=O)N[C@@H](CCSC)C(=O)N[C@@H](Cc1ccccc1)C(=O)O [3102.0412] (H-VINYFNRMF-OH) | 4.3 nM
CC[C@H](C)[C@H](NC(=O)[C@@H](NC(=O)[C@@H](N)CCCCN)[C@@H](C)O)C(=O)N[C@@H](Cc1ccc(O)cc1)C(=O)N[C@@H](CC(C)C)C(=O)N[C@@H](CC(C)C)C(=O)N[C@@H](CO)C(=O)N[C@@H](CC(C)C)C(=O)N[C@@H](Cc1ccccc1)C(=O)O [3102.0490] (H-KTIYLLSLF-OH) | 10 nM
CC[C@H](C)[C@H](NC(=O)[C@H](CC(C)C)NC(=O)[C@H](CC(C)C)NC(=O)[C@H](Cc1ccccc1)NC(=O)[C@H](Cc1c[nH]cn1)NC(=O)[C@H](C)NC(=O)[C@H](CO)NC(=O)[C@@H](N)CCCCN)C(=O)N[C@@H](Cc1ccccc1)C(=O)O [3102.0491] (H-KSAHFLLIF-OH) | 0.19 nM
CC[C@H](C)[C@H](NC(=O)[C@H](C)NC(=O)[C@H](Cc1ccc(O)cc1)NC(=O)[C@H](CO)NC(=O)[C@H](Cc1c[nH]cn1)NC(=O)[C@H](Cc1ccccc1)NC(=O)[C@H](CC(C)C)NC(=O)[C@H](CC(C)C)NC(=O)[C@@H](N)CC(C)C)C(=O)O [3102.0379] (H-LLLFHSYAI-OH) | 11 nM
CC[C@H](C)[C@H](NC(=O)[C@H](Cc1ccccc1)NC(=O)[C@H](CC(C)C)NC(=O)[C@@H](NC(=O)[C@@H](N)CC(C)C)[C@@H](C)CC)C(=O)N[C@@H](CO)C(=O)N[C@H](C(=O)N1CCC[C@H]1C(=O)N[C@@H](Cc1ccccc1)C(=O)O)[C@@H](C)CC [3102.0290] (H-LILFISIPF-OH) | 25 nM
CC[C@H](C)[C@H](NC(=O)[C@@H](NC(=O)[C@@H](NC(=O)[C@H](CC(N)=O)NC(=O)[C@H](Cc1ccccc1)NC(=O)[C@H](Cc1ccccc1)NC(=O)[C@@H](NC(=O)[C@@H](NC(=O)[C@@H](N)C(C)C)C(C)C)[C@@H](C)CC)[C@@H](C)O)[C@@H](C)CC)C(=O)O [3102.0431] (H-VVIFFNTII-OH) | 15 nM
CC[C@H](C)[C@H](NC(=O)[C@H](Cc1ccccc1)NC(=O)[C@@H](NC(=O)[C@H](CCC(N)=O)NC(=O)[C@@H](N)CCCNC(=N)N)[C@@H](C)CC)C(=O)N[C@@H](Cc1c[nH]cn1)C(=O)N[C@@H](Cc1ccc(O)cc1)C(=O)N[C@@H](CO)C(=O)N[C@H](C(=O)O)C(C)C [3102.0296] (H-RQIFIHYSV-OH) | 1 nM
CC[C@H](C)[C@H](NC(=O)[C@H](CO)NC(=O)[C@@H](NC(=O)[C@H](CCC(=O)O)NC(=O)[C@H](CC(N)=O)NC(=O)[C@H](Cc1ccc(O)cc1)NC(=O)[C@@H](NC(=O)[C@@H](NC(=O)[C@@H](N)CCCNC(=N)N)[C@@H](C)O)[C@@H](C)CC)[C@@H](C)O)C(=O)O [3102.0366] (H-RTIYNETSI-OH) | 1 nM
CC[C@H](C)[C@H](NC(=O)[C@H](CC(N)=O)NC(=O)[C@@H](NC(=O)[C@@H](NC(=O)[C@H](Cc1ccccc1)NC(=O)[C@@H](NC(=O)[C@H](C)NC(=O)[C@H](CC(C)C)NC(=O)[C@H](C)N)[C@@H](C)O)[C@@H](C)O)C(C)C)C(=O)O [3102.0344] (H-ALATFTVNI-OH) | 6.1 nM
CC[C@H](C)[C@H](N)C(=O)N[C@@H](CC(C)C)C(=O)N[C@@H](Cc1ccccc1)C(=O)N[C@@H](Cc1ccc(O)cc1)C(=O)N[C@@H](Cc1ccccc1)C(=O)N[C@@H](C)C(=O)N[C@@H](CC(N)=O)C(=O)NCC(=O)N[C@H](C(=O)O)[C@@H](C)CC [3102.1147] (H-ILFYFANGI-OH) | 93 nM
CC[C@H](C)[C@H](NC(=O)[C@H](Cc1ccccc1)NC(=O)[C@H](CCCCN)NC(=O)[C@@H](NC(=O)[C@H](Cc1ccc(O)cc1)NC(=O)[C@H](CCC(N)=O)NC(=O)[C@@H](NC(=O)[C@@H](N)CC(C)C)C(C)C)[C@@H](C)CC)C(=O)N[C@@H](Cc1ccccc1)C(=O)O [3102.0413] (H-LVQYIKFIF-OH) | 20 nM
CC(C)[C@H](NC(=O)[C@H](Cc1ccc(O)cc1)NC(=O)[C@@H](NC(=O)[C@@H](N)CCCNC(=N)N)C(C)C)C(=O)NCC(=O)N[C@@H](CC(N)=O)C(=O)N[C@H](C(=O)N[C@@H](C)C(=O)N[C@@H](Cc1c[nH]c2ccccc12)C(=O)O)C(C)C [3102.0520] (H-RVYVGNVAW-OH) | 1.1 nM
CC(C)[C@H](NC(=O)CNC(=O)[C@H](Cc1ccc(O)cc1)NC(=O)[C@@H](NC(=O)[C@@H](N)CCCNC(=N)N)[C@@H](C)O)C(=O)N[C@@H](CC(N)=O)C(=O)N[C@@H](Cc1ccc(O)cc1)C(=O)N[C@H](C(=O)N[C@@H](Cc1ccccc1)C(=O)O)[C@@H](C)O [3102.0318] (H-RTYGVNYTF-OH) | 0.26 nM
